# Measured values from ChEMBL document CHEMBL2380255, “Dual targeting of adenosine A(2A) receptors and monoamine oxidase B by 4H-3,1-benzothiazin-4-ones” (J Med Chem, 2013).
# Activity calls are given as the source filed them. The rule behind the calls is not given here.
# Experiments:
# [1] = Selectivity ratio of IC50 for MAO-B in mitochondria-enriched Sprague-Dawley rat liver fractions to IC50 for recombinant human MAO-B
# [2] = target: T1, Amine oxidase [flavin-containing] B (Homo sapiens, UniProt P27338); assay: Inhibition of recombinant human MAO-B expressed in baculovirus-infected insect cells using p-tyramine as substrate incubated for 30 mins prior to substrate addition measured for 45 mins by amplex red reagent-based microplate fluorescence reader analysis; format: cell-based
# T1 sequence (P27338 whole entry): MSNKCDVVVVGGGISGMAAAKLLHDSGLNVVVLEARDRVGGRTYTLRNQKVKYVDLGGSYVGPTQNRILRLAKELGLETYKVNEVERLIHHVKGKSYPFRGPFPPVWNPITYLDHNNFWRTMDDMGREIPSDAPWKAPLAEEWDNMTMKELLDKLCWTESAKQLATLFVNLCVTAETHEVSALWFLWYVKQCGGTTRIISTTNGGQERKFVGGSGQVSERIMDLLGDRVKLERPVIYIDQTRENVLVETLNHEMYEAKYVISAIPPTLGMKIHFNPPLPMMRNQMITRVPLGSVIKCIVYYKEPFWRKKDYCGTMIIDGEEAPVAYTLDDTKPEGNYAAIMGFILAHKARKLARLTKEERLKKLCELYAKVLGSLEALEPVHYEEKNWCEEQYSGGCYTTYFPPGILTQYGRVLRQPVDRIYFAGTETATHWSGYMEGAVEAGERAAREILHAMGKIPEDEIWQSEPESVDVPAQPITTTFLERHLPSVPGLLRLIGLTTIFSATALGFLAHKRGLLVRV
# [3] = target: T2, Amine oxidase [flavin-containing] B (Rattus norvegicus, UniProt P19643); assay: Inhibition of MAO-B in mitochondria-enriched Sprague-Dawley rat liver fractions using p-tyramine as substrate incubated for 30 mins prior to substrate addition measured for 45 mins by amplex red reagent-based microplate fluorescence reader analysis
# T2 sequence (P19643 whole entry): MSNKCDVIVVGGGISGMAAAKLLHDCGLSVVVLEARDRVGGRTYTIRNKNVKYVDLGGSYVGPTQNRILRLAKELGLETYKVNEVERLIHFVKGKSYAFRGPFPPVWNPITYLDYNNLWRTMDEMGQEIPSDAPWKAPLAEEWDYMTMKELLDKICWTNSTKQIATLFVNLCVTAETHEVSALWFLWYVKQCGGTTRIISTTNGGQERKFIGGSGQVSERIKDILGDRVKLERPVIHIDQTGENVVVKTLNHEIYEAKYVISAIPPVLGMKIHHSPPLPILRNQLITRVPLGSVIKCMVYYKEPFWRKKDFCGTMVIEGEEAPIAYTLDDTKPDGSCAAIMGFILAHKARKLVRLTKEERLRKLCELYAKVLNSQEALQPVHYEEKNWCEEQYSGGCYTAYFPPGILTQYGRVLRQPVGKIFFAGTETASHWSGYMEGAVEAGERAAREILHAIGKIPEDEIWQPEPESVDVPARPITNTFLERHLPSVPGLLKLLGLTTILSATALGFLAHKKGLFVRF
# [4] = Selectivity ratio of Ki for human recombinant adenosine A1 receptor to Ki for adenosine A1 receptor in rat brain cortical membranes; format: cell membranes; details: Membrane
# Adenosine receptor A3 [5] = target: T3, Adenosine receptor A3 (Homo sapiens, UniProt P0DMS8); assay: Displacement of [3H]PSB-11 from human recombinant adenosine A3 receptor expressed in CHO cells after 60 mins by liquid scintillation counting analysis; format: cell-based
# T3 sequence (P0DMS8 whole entry): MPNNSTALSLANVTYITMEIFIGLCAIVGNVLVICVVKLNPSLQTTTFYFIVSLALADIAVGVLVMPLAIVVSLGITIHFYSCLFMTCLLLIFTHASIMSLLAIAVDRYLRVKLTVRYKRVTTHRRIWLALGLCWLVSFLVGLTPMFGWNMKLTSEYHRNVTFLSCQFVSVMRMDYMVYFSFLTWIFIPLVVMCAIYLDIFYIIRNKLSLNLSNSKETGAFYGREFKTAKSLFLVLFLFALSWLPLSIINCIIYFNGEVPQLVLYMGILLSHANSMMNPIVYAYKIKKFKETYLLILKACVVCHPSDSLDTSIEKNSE
# Adenosine receptor A2b = target: T4, Adenosine receptor A2b (Homo sapiens, UniProt P29275); assay: Displacement of [3H]PSB-603 from human recombinant adenosine A2B receptor expressed in CHO cells after 75 mins by liquid scintillation counting analysis; format: cell-based
# T4 sequence (P29275 whole entry): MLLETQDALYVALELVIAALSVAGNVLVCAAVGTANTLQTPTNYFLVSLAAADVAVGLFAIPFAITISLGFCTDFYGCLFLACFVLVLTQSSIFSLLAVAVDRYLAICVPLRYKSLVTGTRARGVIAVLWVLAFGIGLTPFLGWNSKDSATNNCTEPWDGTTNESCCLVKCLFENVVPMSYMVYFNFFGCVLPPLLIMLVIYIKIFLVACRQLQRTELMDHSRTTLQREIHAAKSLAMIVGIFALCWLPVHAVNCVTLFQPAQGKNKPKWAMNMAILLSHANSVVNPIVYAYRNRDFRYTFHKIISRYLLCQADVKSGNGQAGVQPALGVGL
# Adenosine receptor A1 [6] = target: T5, Adenosine receptor A1 (Homo sapiens, UniProt P30542); assay: Displacement of [3H]CCPA from human recombinant adenosine A1 receptor expressed in CHO cells after 90 mins by liquid scintillation counting analysis; format: cell-based
# T5 sequence (P30542 whole entry): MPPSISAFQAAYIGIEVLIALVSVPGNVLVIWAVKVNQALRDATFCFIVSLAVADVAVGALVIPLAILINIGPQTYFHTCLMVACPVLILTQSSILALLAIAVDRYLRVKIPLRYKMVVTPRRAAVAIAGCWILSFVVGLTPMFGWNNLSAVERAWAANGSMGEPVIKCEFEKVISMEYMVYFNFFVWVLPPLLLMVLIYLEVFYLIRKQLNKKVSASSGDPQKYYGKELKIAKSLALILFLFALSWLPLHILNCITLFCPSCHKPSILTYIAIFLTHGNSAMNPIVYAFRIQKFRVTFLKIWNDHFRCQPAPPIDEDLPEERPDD
# Adenosine receptor A2a [7] = target: Adenosine receptor A2a (Rattus norvegicus, UniProt P30543); assay: Displacement of [3H]MSX2 from adenosine A2A receptor in rat brain striatal membranes after 30 mins by liquid scintillation counting analysis; format: cell membranes, Membrane
# Sequence of Adenosine receptor A2a (Rattus norvegicus, UniProt P30543) (P30543 whole entry): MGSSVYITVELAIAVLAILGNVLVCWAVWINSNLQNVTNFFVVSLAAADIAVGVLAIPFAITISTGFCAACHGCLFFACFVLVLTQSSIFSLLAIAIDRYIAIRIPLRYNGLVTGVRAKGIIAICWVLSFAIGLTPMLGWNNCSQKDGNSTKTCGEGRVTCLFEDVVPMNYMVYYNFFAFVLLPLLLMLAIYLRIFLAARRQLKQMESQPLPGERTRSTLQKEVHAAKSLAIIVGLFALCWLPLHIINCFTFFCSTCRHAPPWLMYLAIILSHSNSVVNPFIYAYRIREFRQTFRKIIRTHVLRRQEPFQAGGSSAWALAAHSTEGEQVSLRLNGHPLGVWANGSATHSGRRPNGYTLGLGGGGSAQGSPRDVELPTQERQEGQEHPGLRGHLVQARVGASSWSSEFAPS
# Adenosine receptor A1 [8] = target: T6, Adenosine receptor A1 (Rattus norvegicus, UniProt P25099); assay: Displacement of [3H]CCPA from adenosine A1 receptor in rat brain cortical membranes after 90 mins by liquid scintillation counting analysis; format: cell membranes, Membrane
# T6 sequence (P25099 whole entry): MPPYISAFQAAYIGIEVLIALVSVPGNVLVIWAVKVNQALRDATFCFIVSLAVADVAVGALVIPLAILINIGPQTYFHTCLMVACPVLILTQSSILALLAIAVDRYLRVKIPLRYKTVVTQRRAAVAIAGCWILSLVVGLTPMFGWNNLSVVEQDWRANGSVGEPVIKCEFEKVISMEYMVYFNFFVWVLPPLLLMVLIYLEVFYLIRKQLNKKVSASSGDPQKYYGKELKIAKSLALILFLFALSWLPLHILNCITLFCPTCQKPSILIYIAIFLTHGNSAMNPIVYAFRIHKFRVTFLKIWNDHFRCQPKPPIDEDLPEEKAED
# [9] = Stability of the compound in DMSO at 1 mg/ml under daylight condition at 20 degC after 7 days by LC-MS analysis; format: physicochemical; details: 168 h
# [10] = target: T1, Amine oxidase [flavin-containing] B; assay: Competitive inhibition of human MAO-B using p-tyramine as substrate at 50 to 300 nM using p-tyramine as substrate incubated for 30 mins prior to substrate addition measured for 45 mins by Lineweaver-burk plot analysis; details: 0.75 h
# [11] = target: T1, Amine oxidase [flavin-containing] B; assay: Reversible inhibition of human MAO-B using p-tyramine as substrate at IC80 incubated for 22 mins followed by substrate addition measured for 5 hrs by fluorescence assay
# Adenosine receptor A2a [12] = target: T7, Adenosine receptor A2a (Homo sapiens, UniProt P29274); assay: Antagonist activity at human adenosine A2A receptor expressed in CHO cells assessed as decrease in NECA-induced cAMP accumulation up to 20 uM incubated for 10 mins followed by NECA induction for 15 mins measured after 60 mins by liquid scintillation counting analysis in presence of [3H]cAMP; format: functional, cell-based
# T7 sequence (P29274 whole entry): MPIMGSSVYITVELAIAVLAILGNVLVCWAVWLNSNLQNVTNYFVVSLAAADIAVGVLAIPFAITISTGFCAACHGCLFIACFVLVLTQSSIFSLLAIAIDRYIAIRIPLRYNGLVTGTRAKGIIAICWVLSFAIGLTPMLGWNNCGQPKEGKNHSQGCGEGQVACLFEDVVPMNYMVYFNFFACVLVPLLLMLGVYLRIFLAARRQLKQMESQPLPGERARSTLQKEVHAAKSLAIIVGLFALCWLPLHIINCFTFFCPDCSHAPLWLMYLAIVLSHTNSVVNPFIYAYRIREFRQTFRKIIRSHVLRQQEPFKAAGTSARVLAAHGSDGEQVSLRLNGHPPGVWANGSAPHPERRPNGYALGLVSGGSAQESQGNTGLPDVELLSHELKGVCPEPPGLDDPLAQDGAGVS
# Adenosine receptor A2a [13] = target: T7, Adenosine receptor A2a; assay: Antagonist activity at human adenosine A2A receptor expressed in CHO cells assessed as decrease in cAMP accumulation up to 20 uM preincubated for 10 mins measured after 60 mins by liquid scintillation counting analysis in presence of [3H]cAMP; format: functional, cell-based
# Homo sapiens [14] = species: Homo sapiens; assay: Selectivity ratio of Ki for human recombinant adenosine A1 receptor to Ki for human recombinant adenosine A2A receptor
# Homo sapiens [15] = species: Homo sapiens; assay: Selectivity ratio of Ki for human recombinant adenosine A3 receptor to Ki for human recombinant adenosine A2A receptor
# Homo sapiens [16] = species: Homo sapiens; assay: Selectivity ratio of Ki for human recombinant adenosine A2B receptor to Ki for human recombinant adenosine A2A receptor
# Adenosine receptor A2a [17] = target: T7, Adenosine receptor A2a; assay: Displacement of [3H]MSX2 from human recombinant adenosine A2A receptor expressed in CHO cells after 30 mins by liquid scintillation counting analysis; format: cell-based
# [18] = Stability of the compound in DMSO at 1 mg/ml under daylight condition at 20 degC after 24 hrs by LC-MS analysis; format: physicochemical
# Adenosine receptor A1 [19] = target: T5, Adenosine receptor A1; assay: Displacement of [3H]CCPA from human recombinant adenosine A1 receptor expressed in CHO cells
# Adenosine receptor A3 [20] = target: T3, Adenosine receptor A3; assay: Displacement of [3H]PSB-11 from human recombinant adenosine A3 receptor expressed in CHO cells; format: cell-based
# [21] = target: T1, Amine oxidase [flavin-containing] B; assay: Ratio of selegiline IC50 to compound IC50 for recombinant human MAO-B
# [22] = Selectivity ratio of Ki for adenosine A2A receptor in rat brain striatal membranes to Ki for human recombinant adenosine A2A receptor; format: cell membranes; details: Membrane
SMILES,Ratio IC50 [1],IC50 [2] [nM],IC50 [3] [nM],Ki (Adenosine receptor A3 [5]) [nM],Ki (Adenosine receptor A2b) [nM],Ki (Adenosine receptor A1 [6]) [nM],Ki (Adenosine receptor A2a [7]) [nM],Ki (Adenosine receptor A1 [8]) [nM],Ki (Adenosine receptor A2a [17]) [nM],also measured
O=C(C/C=C/c1cccc(Cl)c1)Nc1nc2ccccc2c(=O)s1,1.4,> 1000,840,> 1000,> 1000,562,≥ 10000,11.4,–,Ratio Ki [4]: < 45
Cn1c(=O)c2c(nc(/C=C/c3cccc(Cl)c3)n2C)n(C)c1=O,–,–,38.5,> 1000,–,> 10000,–,–,–,Stability [18]: Unstable
CCn1c(=O)c2c(nc(/C=C/c3ccc(OC)c(OC)c3)n2C)n(CC)c1=O [ISTRADEFYLLINE],–,–,–,–,–,–,–,–,–,Ki (Adenosine receptor A1 [19]): 2830 nM; Ki (Adenosine receptor A3 [20]): > 3000 nM
COc1cccc(/C=C/CC(=O)Nc2nc3ccccc3c(=O)s2)c1,1.4,238,2020,115,≥ 1000,500,317,11.2,91.8,Ratio Ki [4]: < 45

# Now from value to molecule, other results behind:
Ratio IC50 [1],IC50 [2] [nM],IC50 [3] [nM],Ki (Adenosine receptor A3 [5]) [nM],Ki (Adenosine receptor A2b) [nM],Ki (Adenosine receptor A1 [6]) [nM],Ki (Adenosine receptor A2a [7]) [nM],Ki (Adenosine receptor A1 [8]) [nM],Ki (Adenosine receptor A2a [17]) [nM],SMILES,also measured
1.4,34.9,186,> 1000,> 1000,2500,423,229,39.5,O=C(CCCc1ccccc1)Nc1nc2ccccc2c(=O)s1,Stability [9]: Stable; inhibition (INH) [10]: Active; inhibition (INH) [11]: Active; Activity (Adenosine receptor A2a [12]): Active; Activity (Adenosine receptor A2a [13]): Active; Ratio Ki (Homo sapiens [14]): 63; Ratio Ki (Homo sapiens [15]): > 25; Ratio Ki (Homo sapiens [16]): > 25
400,1.63,661,> 1000,> 1000,–,> 10000,> 10000,–,O=C(COc1cccc(Cl)c1)Nc1nc2ccccc2c(=O)s1,Ratio IC50 [21]: 4
1.4,95.3,621,173,225,1370,294,367,64.9,COc1cccc(CCC(=O)Nc2nc3ccccc3c(=O)s2)c1,inhibition (INH) [11]: Active; Ratio Ki (Homo sapiens [14]): 21; Ratio Ki (Homo sapiens [15]): 3; Ratio Ki (Homo sapiens [16]): 4; Ratio Ki [22]: > 4
